Experimental data reported in patent publication US10689378B2, “Triazolopyridine compounds and uses thereof” (Novartis AG, priority 2016, dated 2020).
Where two headings read alike, the source gives them in different places.

Legend:
[1] = target: wild type PRC2 (wtPRC2) complex (Homo sapiens, UniProt O75530); assay: EED LC-MS assay (SAH production by PRC2); assay type: biochemical; settings: read-out: (b) IC50 EED LC-MS Qualified
Procedure, shortened: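 Pentameric PRC2 (EZH2, SUZ12, EED, Rbap48, AEBP), 12 nM final, preincubated 20 min with compound and SAM, then 1.5 μM biotinylated H3K27me0 peptide, 1 μM SAM, pH 8.0, 120 min at rt. SAH quantified by LC-MS/MS with d4-SAH; control-normalized activity fitted for IC50.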

[2] = system: H3K27 methylation in G401 cell; assay: ELISA (H3K27 methylation) assay in G401 cells; assay type: cell-based, human; settings: Homo sapiens
Procedure, shortened: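 G401 cells treated 48 h with 3-fold dilutions (8 or 12 points, top 20 μM). Acid-extracted histones probed by ELISA for H3K27me3 or H3K27me2 with ECL readout, normalized to total H3. Percent inhibition versus DMSO fitted to dose-response curve for IC50.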

EED (1-441)-His protein = target: T1, EED (1-441)-His protein (Homo sapiens, UniProt O75530); assay: EED-H3K27Me3 peptide competition binding assay by AlphaScreen; settings: read-out: (a) IC50 EED Alphascreen binding Qualified
T1 construct: 30 nM EED (1-441)-His protein
Procedure, shortened: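 Serially diluted compound (12 points, 3-fold) incubated 20 min with 30 nM EED(1-441)-His and 15 nM biotin-H3K27Me3(19-33) peptide in 25 mM HEPES pH 8, 0.02% Tween-20, 0.5% BSA. Ni-chelate acceptor/streptavidin donor beads (10 μg/mL each) added, 1 h rt dark; 615 nm emission normalized to controls, dose-response fit for IC50.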

[3] = G-401, H3K27 methylation ELISA, read-out: (c) IC50 ELISA Qualified
[4] = EED-H3K27Me3 peptide competition, AlphaScreen
[5] = G-401, read-out: (c) IC50 ELISA Qualified

T1 sequence (O75530 whole entry): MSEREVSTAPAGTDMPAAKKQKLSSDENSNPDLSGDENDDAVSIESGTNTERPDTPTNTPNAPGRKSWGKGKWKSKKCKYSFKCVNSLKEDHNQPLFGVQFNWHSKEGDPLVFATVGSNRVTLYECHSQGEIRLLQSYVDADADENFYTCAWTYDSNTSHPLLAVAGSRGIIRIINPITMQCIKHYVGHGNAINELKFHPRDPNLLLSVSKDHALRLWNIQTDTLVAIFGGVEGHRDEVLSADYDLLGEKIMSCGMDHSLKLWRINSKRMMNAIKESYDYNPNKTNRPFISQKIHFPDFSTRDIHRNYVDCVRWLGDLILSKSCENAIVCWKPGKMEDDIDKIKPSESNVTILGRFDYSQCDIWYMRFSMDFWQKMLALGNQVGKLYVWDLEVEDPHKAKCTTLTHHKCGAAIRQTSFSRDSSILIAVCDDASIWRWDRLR
wild type PRC2 (wtPRC2) complex, sequence (O75530 whole entry): as above
wild type PRC2 (wtPRC2) complex, sequence (Q15910 whole entry partner): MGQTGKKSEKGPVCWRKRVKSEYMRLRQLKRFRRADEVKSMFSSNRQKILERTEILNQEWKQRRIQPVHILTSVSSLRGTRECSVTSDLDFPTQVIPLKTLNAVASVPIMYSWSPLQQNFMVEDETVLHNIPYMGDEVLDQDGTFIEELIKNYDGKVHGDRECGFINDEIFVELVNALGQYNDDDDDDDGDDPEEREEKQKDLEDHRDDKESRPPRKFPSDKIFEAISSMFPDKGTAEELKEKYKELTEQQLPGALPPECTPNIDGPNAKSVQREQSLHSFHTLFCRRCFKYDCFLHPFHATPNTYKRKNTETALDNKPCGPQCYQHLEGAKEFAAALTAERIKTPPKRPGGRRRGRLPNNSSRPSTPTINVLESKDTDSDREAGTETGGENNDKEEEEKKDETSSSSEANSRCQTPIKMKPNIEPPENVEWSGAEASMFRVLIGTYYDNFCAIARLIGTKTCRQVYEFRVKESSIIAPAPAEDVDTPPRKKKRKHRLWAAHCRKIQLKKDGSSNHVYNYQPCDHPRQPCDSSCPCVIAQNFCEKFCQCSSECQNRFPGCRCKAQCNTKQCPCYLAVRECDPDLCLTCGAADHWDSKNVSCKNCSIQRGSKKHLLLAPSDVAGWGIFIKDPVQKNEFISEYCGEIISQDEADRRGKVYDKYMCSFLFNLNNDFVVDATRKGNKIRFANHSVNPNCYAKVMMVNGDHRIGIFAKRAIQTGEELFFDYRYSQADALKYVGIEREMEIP
wild type PRC2 (wtPRC2) complex, sequence (Q15022 whole entry partner): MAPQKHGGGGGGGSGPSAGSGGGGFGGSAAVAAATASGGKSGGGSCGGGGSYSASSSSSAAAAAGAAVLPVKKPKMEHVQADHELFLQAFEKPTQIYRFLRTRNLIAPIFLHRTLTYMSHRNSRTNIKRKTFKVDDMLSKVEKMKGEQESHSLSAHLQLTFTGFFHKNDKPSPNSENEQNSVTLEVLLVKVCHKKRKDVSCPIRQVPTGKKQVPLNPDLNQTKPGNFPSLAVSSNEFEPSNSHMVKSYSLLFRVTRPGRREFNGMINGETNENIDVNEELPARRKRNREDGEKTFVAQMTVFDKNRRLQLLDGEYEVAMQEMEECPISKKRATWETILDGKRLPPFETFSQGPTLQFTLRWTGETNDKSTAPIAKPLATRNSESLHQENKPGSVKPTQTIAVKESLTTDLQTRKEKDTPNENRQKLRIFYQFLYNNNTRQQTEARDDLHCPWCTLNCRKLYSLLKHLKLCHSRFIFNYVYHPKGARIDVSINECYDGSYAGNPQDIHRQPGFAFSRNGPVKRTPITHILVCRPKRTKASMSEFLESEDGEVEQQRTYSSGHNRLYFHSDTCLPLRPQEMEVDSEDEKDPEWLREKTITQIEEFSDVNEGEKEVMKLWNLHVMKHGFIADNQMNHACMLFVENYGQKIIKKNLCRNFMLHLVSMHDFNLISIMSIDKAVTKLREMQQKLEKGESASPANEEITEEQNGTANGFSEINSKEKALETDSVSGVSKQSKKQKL
wild type PRC2 (wtPRC2) complex, sequence (Q09028 whole entry partner): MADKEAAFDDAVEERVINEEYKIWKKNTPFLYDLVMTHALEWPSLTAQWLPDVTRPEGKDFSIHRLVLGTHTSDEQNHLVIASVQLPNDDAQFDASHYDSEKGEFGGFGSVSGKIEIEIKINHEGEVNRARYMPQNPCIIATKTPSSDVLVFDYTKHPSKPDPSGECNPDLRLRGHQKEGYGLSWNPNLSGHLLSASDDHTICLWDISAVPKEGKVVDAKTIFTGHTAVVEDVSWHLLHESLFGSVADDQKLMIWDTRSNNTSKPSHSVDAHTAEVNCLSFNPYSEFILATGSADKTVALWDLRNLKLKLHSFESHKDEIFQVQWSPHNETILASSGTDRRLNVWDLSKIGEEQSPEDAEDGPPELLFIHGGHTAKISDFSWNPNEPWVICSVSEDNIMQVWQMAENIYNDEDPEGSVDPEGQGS
wild type PRC2 (wtPRC2) complex, sequence (Q6ZN18 whole entry partner): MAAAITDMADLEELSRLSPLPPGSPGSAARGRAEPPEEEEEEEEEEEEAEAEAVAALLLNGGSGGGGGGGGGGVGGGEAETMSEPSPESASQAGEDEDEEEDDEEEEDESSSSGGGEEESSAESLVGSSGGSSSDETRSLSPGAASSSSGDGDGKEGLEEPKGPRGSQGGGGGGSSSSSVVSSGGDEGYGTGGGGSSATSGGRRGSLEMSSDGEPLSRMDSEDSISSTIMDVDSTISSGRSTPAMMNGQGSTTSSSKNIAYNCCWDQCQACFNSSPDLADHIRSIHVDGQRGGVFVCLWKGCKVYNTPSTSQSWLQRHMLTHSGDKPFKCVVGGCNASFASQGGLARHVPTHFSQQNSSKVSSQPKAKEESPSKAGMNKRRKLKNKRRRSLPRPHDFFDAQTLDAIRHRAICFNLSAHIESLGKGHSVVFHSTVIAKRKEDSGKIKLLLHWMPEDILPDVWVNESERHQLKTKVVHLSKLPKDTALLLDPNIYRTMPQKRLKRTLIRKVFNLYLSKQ

Compound | IC50 ([1]; PRC2 LC-MS assay) | IC50 [2, 3] | IC50 (EED (1-441)-His protein; [4]) | IC50 [1] | IC50 [2, 5] | IC50 (EED (1-441)-His protein)
COc1cc(F)cc(F)c1CNc1ccc(-c2ccc(C#N)nc2C)c2nncn12 [Example 324, 5-(5-((2,4-difluoro-6-methoxybenzyl)amino)-[1,2,4]triazolo[4,3-a]pyridin-8-yl)-6-methylpicolinonitrile] | 63.8 nM | 15.9 nM | 17.9 nM | – | – | –
COc1cccc(F)c1CNc1ccc(-c2cnccn2)c2nncn12 [Example 325, N-(2-fluoro-6-methoxybenzyl)-8-(pyrazin-2-yl)-[1,2,4]triazolo[4,3-a]pyridin-5-amine] | 141 nM | 33.8 nM | 37 nM | – | – | –
COc1cccc(F)c1CNc1ccc(-c2cc(Cl)cnc2C)c2nncn12 [Example 326, 8-(5-chloro-2-methylpyridin-3-yl)-N-(2-fluoro-6-methoxybenzyl)-[1,2,4]triazolo[4,3-a] pyridin-5-amine] | 71.6 nM | 29.8 nM | 26.1 nM | – | – | –
COc1c(F)ccc(F)c1CNc1ccc(-c2cccnc2C)c2nncn12 [Example 327, N-(3,6-difluoro-2-methoxybenzyl)-8-(2-methylpyridin-3-yl)-[1,2,4]triazolo[4,3-a] pyridin-5-amine] | 172 nM | 51.9 nM | 48.3 nM | – | – | –
COc1ncccc1CNc1ccc(-c2cccnc2C)c2nncn12 [Example 328, N-((2-methoxypyridin-3-yl)methyl)-8-(2-methylpyridin-3-yl)-[1,2,4]triazolo[4,3-a] pyridin-5-amine] | 284 nM | 76.3 nM | 73.5 nM | – | – | –
COc1cc(F)cc(F)c1CNc1ccc(-c2cnc(C)cc2C)c2nncn12 [Example 329, N-(2,4-difluoro-6-methoxybenzyl)-8-(4,6-dimethylpyridin-3-yl)-[1,2,4]triazolo [4,3-a]pyridin-5-amine] | 1360 nM | 48 nM | 31.1 nM | – | – | –
COc1cccc(F)c1CNc1ccc(-c2cn(C)nc2CO)c2nncn12 [Example 330, (4-(5-((2-fluoro-6-methoxy benzyl)amino)-[1,2,4]triazolo[4,3-a]pyridin-8-yl)-1-methyl-1H-pyrazol-3-yl) methanol] | 96.2 nM | 24 nM | 24 nM | – | – | –
COc1cccc(F)c1CNc1ccc(-c2cnc(OC(C)C)nc2C)c2nncn12 [Example 332, N-(2-fluoro-6-methoxybenzyl)-8-(2-isopropoxy-4-methylpyrimidin-5-yl)-[1,2,4] triazolo[4,3-a]pyridin-5-amine] | 26.6 nM | 7.3 nM | 8.2 nM | – | – | –
COc1c(F)ccc(F)c1CNc1ccc(-c2cnc(C)nc2C)c2nncn12 [Example 333, N-(3,6-difluoro-2-methoxybenzyl)-8-(2,4-dimethylpyrimidin-5-yl)-[1,2,4] triazolo[4,3-a]pyridin-5-amine] | 286 nM | 67.6 nM | 95.1 nM | – | – | –
COc1c(F)ccc(F)c1CNc1ccc(-c2ccc(S(C)(=O)=O)nc2C)c2nncn12 [Example 334, N-(3,6-difluoro-2-methoxybenzyl)-8-(2-methyl-6-(methylsulfonyl)pyridin-3-yl)-[1,2,4]triazolo[4,3-a] pyridin-5-amine] | 144 nM | 31.6 nM | 38 nM | – | – | –
COc1cccc(Cl)c1CNc1ccc(-c2cccnc2C)c2nncn12 [Example 335, N-(2-chloro-6-methoxybenzyl)-8-(2-methylpyridin-3-yl)-[1,2,4]triazolo[4,3-a] pyridin-5-amine] | 254 nM | 318 nM | 84.5 nM | – | – | –
COc1cccc(F)c1CNc1ccc(-c2cnn(C)c2CO)c2nncn12 [Example 336, (4-(5-((2-fluoro-6-methoxy benzyl)amino)-[1,2,4]triazolo[4,3-a]pyridin-8-yl)-1-methyl-1H-pyrazol-5-yl) methanol] | 59.5 nM | 12.1 nM | 12.8 nM | – | – | –
COc1cccc(F)c1CNc1ccc(-c2cc(C)ncc2C(F)F)c2nncn12 [Example 337, 8-(5-(difluoromethyl)-2-methylpyridin-4-yl)-N-(2-fluoro-6-methoxybenzyl)-[1,2,4]triazolo[4,3-a]pyridin-5-amine] | 166 nM | 43.1 nM | 23.8 nM | – | – | –
COc1cccc(F)c1CNc1ccc(-c2c(Cl)ccnc2C)c2nncn12 [Example 338, 8-(4-chloro-2-methylpyridin-3-yl)-N-(2-fluoro-6-methoxybenzyl)-[1,2,4]triazolo[4,3-a] pyridin-5-amine] | 42.1 nM | 16.2 nM | 7.4 nM | – | – | –
COc1cccc(F)c1CNc1ccc(-c2ccc(CC#N)nc2C)c2nncn12 [Example 339, 2-(5-(5-((2-fluoro-6-methoxybenzyl)amino)-[1,2,4]triazolo[4,3-a]pyridin-8-yl)-6-methylpyridin-2-yl) acetonitrile] | 20.9 nM | 6.7 nM | 6 nM | – | – | –
COc1cccc(F)c1CNc1ccc(-c2cccnc2C#N)c2nncn12 [Example 340, 3-(5-((2-fluoro-6-methoxybenzyl)amino)-[1,2,4]triazolo[4,3-a]pyridin-8-yl) picolinonitrile] | 523 nM | 25.5 nM | 12.5 nM | – | – | –

Second part, the compound after the results:

IC50 ([1]; PRC2 LC-MS assay) | IC50 [2, 3] | IC50 (EED (1-441)-His protein; [4]) | IC50 [1] | IC50 [2, 5] | IC50 (EED (1-441)-His protein) | Compound
95.5 nM | 21.9 nM | 21.6 nM | – | – | – | COc1cccc(F)c1CNc1ccc(-c2cccnc2CC#N)c2nncn12 [Example 341, 2-(3-(5-((2-fluoro-6-methoxybenzyl)amino)-[1,2,4]triazolo[4,3-a]pyridin-8-yl)pyridin-2-yl)acetonitrile]
492 nM | 36.5 nM | 25.7 nM | – | – | – | CCOc1ncc(-c2ccc(NCc3c(F)cc(F)cc3OC)n3cnnc23)c(C)n1 [Example 343, N-(2,4-difluoro-6-methoxybenzyl)-8-(2-ethoxy-4-methylpyrimidin-5-yl)-[1,2,4]triazolo[4,3-a]pyridin-5-amine]
24.5 nM | 10.4 nM | 7.6 nM | – | – | – | COc1cccc(F)c1CNc1ccc(-c2cnccc2CO)c2nncn12 [Example 345, (3-(5-((2-fluoro-6-methoxy benzyl)amino)-[1,2,4]triazolo[4,3-a]pyridin-8-yl)pyridin-4-yl)methanol]
– | – | – | 209 nM | 45.5 nM | 85.1 nM | COc1ncccc1CNc1ccc(-c2cnc(C)nc2C)c2nncn12 [Example 348, 8-(2,4-dimethylpyrimidin-5-yl)-N-((2-methoxypyridin-3-yl)methyl)-[1,2,4]triazolo [4,3-a]pyridin-5-amine]
– | – | – | 291 nM | 31.2 nM | 22.9 nM | COc1cc(F)cc(F)c1CNc1ccc(-c2cnc(OC(C)C)nc2C)c2nncn12 [Example 349, N-(2,4-difluoro-6-methoxybenzyl)-8-(2-isopropoxy-4-methylpyrimidin-5-yl)-[1,2,4]triazolo[4,3-a]pyridin-5-amine]
– | – | – | 45.4 nM | 16.4 nM | 32.2 nM | COc1cccc(F)c1CNc1ccc(-c2cc(C#N)cnc2C)c2nncn12 [Example 350, 5-(5-((2-fluoro-6-methoxybenzyl)amino)-[1,2,4]triazolo[4,3-a]pyridin-8-yl)-6-methylnicotinonitrile]
– | – | – | 22.9 nM | 15.5 nM | 23.4 nM | COc1cccc(F)c1CNc1ccc(-c2ccc(C(C)C)nc2C)c2nncn12 [Example 351, N-(2-fluoro-6-methoxybenzyl)-8-(6-isopropyl-2-methylpyridin-3-yl)-[1,2,4]triazolo[4,3-a]pyridin-5-amine]
– | – | – | 106 nM | 32 nM | 29.5 nM | COc1cccc(F)c1CNc1ccc(-c2cnc(C(C)C)cc2C)c2nncn12 [Example 352, N-(2-fluoro-6-methoxybenzyl)-8-(6-isopropyl-4-methylpyridin-3-yl)-[1,2,4] triazolo[4,3-a]pyridin-5-amine]
– | – | – | 156 nM | 39.3 nM | 25.8 nM | COc1cccc(F)c1CNc1ccc(-n2cc(C)cn2)c2nncn12 [Example 353, N-(2-fluoro-6-methoxybenzyl)-8-(4-methyl-1H-pyrazol-1-yl)-[1,2,4]triazolo [4,3-a]pyridin-5-amine]
– | – | – | 60.6 nM | 21.4 nM | 26.1 nM | COc1cccc(F)c1CNc1ccc(-n2cnc(C)c2)c2nncn12 [Example 354, N-(2-fluoro-6-methoxybenzyl)-8-(4-methyl-1H-imidazol-1-yl)-[1,2,4]triazolo [4,3-a]pyridin-5-amine]
– | – | – | 30.5 nM | 11.7 nM | 15.8 nM | COc1cccc(F)c1CNc1ccc(-c2nc(C)nn2C)c2nncn12 [Example 355, 8-(1,3-dimethyl-1H-1,2,4-triazol-5-yl)-N-(2-fluoro-6-methoxybenzyl)-[1,2,4] triazolo[4,3-a]pyridin-5-amine]
– | – | – | 117 nM | 14 nM | 19 nM | COc1cccc(F)c1CNc1ccc(-c2ncnn2C)c2nncn12 [Example 356, N-(2-fluoro-6-methoxybenzyl)-8-(1-methyl-1H-1,2,4-triazol-5-yl)-[1,2,4] triazolo[4,3-a]pyridin-5-amine]
